Experiment: physchem
Format: physicochemical
Settings: water, Approximate Solubility
Description: Despite this, the screen offered a list of suitable solvents/solvent mixtures and anti-solvents to be used for the crystallization experiments. Using information obtained from the initial investigation into the solubility of IO-125, a series of bench scale crystallization experiments were carried out in order to provide examples of solution-based crystallization method that yield crystalline IO-125. Within this investigation, a number of techniques were designed to find suitable crystallization conditions including: using controlled linear cooling of IO-125 in different solvents, anti-solvent additions, evaporations and seeding. […] A significant mass loss was then observed in thermogravimetric trace from approx. 270° C., and was coupled with a large endothermic event with onset of 288.4° C. and peak at 297.2° C. in the differential thermogram. Again, this is likely associated with the decomposition of IO-125.
Initially a series of solvents and mixture of solvents were screened to select suitable solvents for the crystallization procedure.

CC(C)CCC[C@@H](C)[C@H]1CCC2C3CC=C4C[C@@H](OCCN(CC(=O)[O-])CC(=O)[O][Pt+]5[NH][C@@H]6CCCC[C@H]6[NH]5)CC[C@]4(C)C3CC[C@@]21C (stereo partly shown) [Comp 25]
solubility: ≤ 10000 µg/mL

Source: US10800801B2, “Crystalline platinum-based compounds” (AKAMARA THERAPEUTICS, INC., priority 2016, dated 2020)
